Data as given in ChEMBL document CHEMBL1201862, “PubChem BioAssay data set” (2004).
The source made the active and inactive calls.

Legend:
Cytochrome P450 2D6 = Cytochrome P450 2D6 (Homo sapiens, UniProt P10635);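 also: CYP2D6 member of a cytochrome P450 panel assay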
Cytochrome P450 1A2 = molecular target: T1, Cytochrome P450 1A2 (Homo sapiens, UniProt P05177);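 also: PubChem cytochrome P450 panel assay, CYP1A2 panel member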
T1 sequence (P05177 whole entry): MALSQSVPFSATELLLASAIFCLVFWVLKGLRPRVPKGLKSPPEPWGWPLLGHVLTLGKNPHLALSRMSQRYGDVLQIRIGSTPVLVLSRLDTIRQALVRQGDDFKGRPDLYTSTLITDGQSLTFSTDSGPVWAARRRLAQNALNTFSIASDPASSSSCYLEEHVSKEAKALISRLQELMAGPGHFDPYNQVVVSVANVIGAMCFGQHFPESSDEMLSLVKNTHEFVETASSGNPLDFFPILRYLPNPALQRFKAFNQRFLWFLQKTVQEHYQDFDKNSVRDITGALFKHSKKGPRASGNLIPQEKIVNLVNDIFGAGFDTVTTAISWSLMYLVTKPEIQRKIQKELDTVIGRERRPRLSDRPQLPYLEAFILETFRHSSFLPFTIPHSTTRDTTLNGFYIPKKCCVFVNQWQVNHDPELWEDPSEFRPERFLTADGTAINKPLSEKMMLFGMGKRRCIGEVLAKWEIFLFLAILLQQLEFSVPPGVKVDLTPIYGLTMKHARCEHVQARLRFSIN

[1] = inhibitors of firefly luciferase expression or activity, dose response, H4 neuroglioma cells, luminescence (AID 1990); assay type: functional, cell-based
[2] = Luminescence Cell-Based Dose Response HTS to Identify Inhibitors of 5'UTR Stem-Loop Driven Prion Protein mRNA Translation in H4 Neuroglioblastoma Cells. [Related pubchem assays: 1827 (Project Summary), 1813 (Primary HTS)]; assay type: functional
[3] = inhibitors of SNCA 5'UTR-driven reporter translation, confirmation, H4 neuroglioma cells, luminescence (AID 1988); assay type: functional, cell-based
[4] = molecular target: T2, Carboxy-terminal domain RNA polymerase II polypeptide A small phosphatase 1 (Homo sapiens, UniProt Q9GZU7); assay: inhibitors of CTDSP1, concentration-response testing, biochemical assay, absorbance-based, actives from ultra-high-throughput screening (AID 540297); assay type: functional
T2 sequence (Q9GZU7 whole entry): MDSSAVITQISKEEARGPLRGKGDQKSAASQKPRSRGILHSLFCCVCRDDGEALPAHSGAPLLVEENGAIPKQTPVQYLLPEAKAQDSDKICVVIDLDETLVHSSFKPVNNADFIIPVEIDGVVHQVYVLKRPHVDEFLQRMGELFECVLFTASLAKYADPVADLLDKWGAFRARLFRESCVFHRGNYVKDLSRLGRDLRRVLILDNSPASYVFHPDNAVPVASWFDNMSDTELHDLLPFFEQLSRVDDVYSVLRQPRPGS

Cytochrome P450 3A4 = Cytochrome P450 3A4 (Homo sapiens, UniProt P08684);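 also: CYP3A4 tested as one member of a cytochrome P450 panel screen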
Cytochrome P450 3A4, sequence (P08684 whole entry): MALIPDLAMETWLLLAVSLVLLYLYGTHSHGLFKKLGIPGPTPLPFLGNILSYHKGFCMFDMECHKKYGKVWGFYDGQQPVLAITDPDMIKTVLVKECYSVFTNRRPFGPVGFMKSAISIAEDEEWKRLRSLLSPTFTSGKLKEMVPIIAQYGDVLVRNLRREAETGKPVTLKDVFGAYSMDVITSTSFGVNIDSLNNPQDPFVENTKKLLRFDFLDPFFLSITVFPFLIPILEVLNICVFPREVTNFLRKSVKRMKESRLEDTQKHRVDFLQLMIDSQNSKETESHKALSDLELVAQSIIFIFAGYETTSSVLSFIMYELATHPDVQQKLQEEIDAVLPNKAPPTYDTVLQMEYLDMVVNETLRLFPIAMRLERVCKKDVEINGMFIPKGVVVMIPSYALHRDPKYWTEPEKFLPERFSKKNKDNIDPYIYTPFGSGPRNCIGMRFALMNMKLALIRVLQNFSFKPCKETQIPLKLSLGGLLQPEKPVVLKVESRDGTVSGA

[5] = growth suppression of PTEN-null colon cells, dose response, cell-based, HCT116 PTEN knockout (AID 1047); assay type: functional;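 also: HCT116 colon tumor cells with PTEN knocked out; cells exposed to compound for 60 hours before readout; potency for loss of cell viability measured by luminescence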
[6] = growth suppression of beta-catenin-knockout colon cells, dose response, cell-based, HCT116, human colon tumor (AID 1045); assay type: functional;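 also: HCT116 colon tumor cells with beta catenin knocked out; cells exposed to compound for 60 hours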
[7] = molecular target: T3, Polyadenylate-binding protein 1 (Homo sapiens, UniProt P11940); assay: PABP1 MLLE–PAM2 interaction inhibitors, dose response, miRNA deadenylation inhibitor project, biochemical, fluorescence polarization, Cy5-PAM2 peptide, secondary (AID 602260); assay type: functional; conditions: read-out: IC50_Mean
T3 sequence (P11940 whole entry): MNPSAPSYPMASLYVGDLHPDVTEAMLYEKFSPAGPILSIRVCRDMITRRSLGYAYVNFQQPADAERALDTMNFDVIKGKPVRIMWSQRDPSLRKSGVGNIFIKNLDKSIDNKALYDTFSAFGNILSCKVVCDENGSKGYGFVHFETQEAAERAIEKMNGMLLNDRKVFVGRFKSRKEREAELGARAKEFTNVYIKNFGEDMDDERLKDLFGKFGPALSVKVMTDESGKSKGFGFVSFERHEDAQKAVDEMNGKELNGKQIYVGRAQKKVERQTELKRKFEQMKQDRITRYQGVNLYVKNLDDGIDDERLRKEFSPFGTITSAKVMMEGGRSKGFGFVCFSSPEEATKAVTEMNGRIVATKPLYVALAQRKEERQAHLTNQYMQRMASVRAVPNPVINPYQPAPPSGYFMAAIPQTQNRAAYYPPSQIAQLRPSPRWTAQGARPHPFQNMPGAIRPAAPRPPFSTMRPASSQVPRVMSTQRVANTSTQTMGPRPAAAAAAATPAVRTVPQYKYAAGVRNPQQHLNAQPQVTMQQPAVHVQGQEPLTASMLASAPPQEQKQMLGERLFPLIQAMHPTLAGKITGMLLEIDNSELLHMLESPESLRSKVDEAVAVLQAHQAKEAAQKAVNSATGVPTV

[8] = molecular target: T3, Polyadenylate-binding protein 1; assay: PABP1 MLLE–PAM2 binding inhibitor potency, dose response, biochemical, fluorescence polarization, FITC-PAM2 peptide (AID 602259); assay type: functional; conditions: read-out: IC50_Mean
cells = assay type: functional
Cytochrome P450 2C9 = Cytochrome P450 2C9 (Homo sapiens, UniProt P11712)
Cytochrome P450 2C9, sequence (P11712 whole entry): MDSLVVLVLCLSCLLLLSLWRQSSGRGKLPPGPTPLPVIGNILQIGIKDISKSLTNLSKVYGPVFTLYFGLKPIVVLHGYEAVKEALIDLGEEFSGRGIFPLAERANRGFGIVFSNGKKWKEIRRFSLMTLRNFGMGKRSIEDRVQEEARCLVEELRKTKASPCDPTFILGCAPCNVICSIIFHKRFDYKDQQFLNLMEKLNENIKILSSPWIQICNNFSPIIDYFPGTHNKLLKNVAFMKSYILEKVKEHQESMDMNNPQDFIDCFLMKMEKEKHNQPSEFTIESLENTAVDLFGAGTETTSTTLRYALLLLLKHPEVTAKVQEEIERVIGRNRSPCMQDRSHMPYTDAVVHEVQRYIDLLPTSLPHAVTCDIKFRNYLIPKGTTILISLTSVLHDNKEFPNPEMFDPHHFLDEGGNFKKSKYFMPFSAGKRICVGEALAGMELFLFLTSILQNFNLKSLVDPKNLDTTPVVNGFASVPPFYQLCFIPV

Cytochrome P450 2D6, sequence (P10635 whole entry): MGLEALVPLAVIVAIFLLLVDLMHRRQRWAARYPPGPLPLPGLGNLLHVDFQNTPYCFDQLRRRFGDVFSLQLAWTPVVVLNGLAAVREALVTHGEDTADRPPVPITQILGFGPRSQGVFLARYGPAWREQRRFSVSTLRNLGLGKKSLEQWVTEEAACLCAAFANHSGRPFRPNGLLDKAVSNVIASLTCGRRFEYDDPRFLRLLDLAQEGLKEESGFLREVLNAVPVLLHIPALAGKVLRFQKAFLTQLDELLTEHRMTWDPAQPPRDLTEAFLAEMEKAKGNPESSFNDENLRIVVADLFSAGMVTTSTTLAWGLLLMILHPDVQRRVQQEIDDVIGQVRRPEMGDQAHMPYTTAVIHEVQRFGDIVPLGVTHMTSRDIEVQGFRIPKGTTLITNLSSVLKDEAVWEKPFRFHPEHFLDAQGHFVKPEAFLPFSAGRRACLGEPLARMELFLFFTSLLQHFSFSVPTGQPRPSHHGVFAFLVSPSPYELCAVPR

In the case of `Cc1cc(Cn2cnc3c2C[C@@H](C(=O)O)N(C(=O)C(c2ccccc2)c2ccccc2)C3)ccc1N(C)C`, the AC50 (Cytochrome P450 2D6) is reported as 39.8 µM (inconclusive) and the AC50 (Cytochrome P450 1A2) is reported as 25.1 µM (inconclusive).
In the case of `Cc1ccc(C(=O)Nc2cccc(C(F)(F)F)c2)cc1NC(=O)c1cnnc2ccccc12`, the EC50 [1] is reported as 13.2 µM (active), the EC50 [2] is reported as 18.9 µM (active) and the EC50 [3] is reported as > 120 µM (not active).
With `COCCCNC(=O)c1ccc(Cn2c(=O)c3ccccc3n(Cc3ccccc3C#N)c2=O)cc1` the EC50 [1] was 20.7 µM (active), the EC50 [2] was > 120 µM (not active) and the EC50 [3] was > 120 µM (not active).
For `O=c1c2ccccc2nc2sc(Nc3ccc(F)cc3)nn12`, the IC50 [4] was 8.04 µM (active).
In the case of `Cc1cc([C@](C)(N)C(=O)O)ccc1P(=O)(O)O`, the AC50 (Cytochrome P450 2D6) is reported as 12.6 µM (inconclusive) and the AC50 (Cytochrome P450 1A2) is reported as 31.6 µM (inconclusive).
In the case of `O=C(CSc1nc2ccccc2[nH]1)NC1CCCC1`, the IC50 [4] is reported as 6.85 µM (active).
In the case of `O=C(CSc1ncccc1-c1nc2ccccc2[nH]1)NCc1ccco1`, the IC50 [4] is reported as 10.3 µM (active).
For `O=C(c1cnccn1)N1CCC[C@@]2(CCN(C(c3ccccc3)c3ccccc3)C2)C1`, the AC50 (Cytochrome P450 1A2) was 15.8 µM (inconclusive) and the AC50 (Cytochrome P450 3A4) was 2.51 µM (inconclusive).
In the case of `O=C(/C=C/c1cccc(OCc2ccccc2)c1)c1cccnc1`, the EC50 [5] is reported as 5.59 µM (active) and the EC50 [6] is reported as 3.79 µM (active).
With `Cc1ccc(C2=[N+]([O-])C3(CCCCC3=O)N(O)C2(C)C)cc1` (configuration not stated) the EC50 [1] was > 120 µM (not active), the EC50 [2] was > 120 µM (not active) and the EC50 [3] was 42.6 µM (active).
In the case of `Cc1nc2ccccn2c1C(=O)C1=C(O)C(=O)N(CCN(C)C)C1c1ccco1` (configuration not stated), the IC50 [7] is reported as > 66 µM (inactive) and the IC50 [8] is reported as > 66 µM (inactive).
For `O=C(Cc1ccc(Cl)cc1)OCC(=O)c1ccc[nH]1`, the IC50 (cells) was 18.8 µM (active).
With `O=C(Nc1ccccc1F)c1cc(-c2ccco2)nc2ccccc12` the IC50 [4] was 8.25 µM (active).
With `COc1ccc(N/N=C2/CCCCC2=O)cc1` the IC50 [7] was > 66 µM (inactive) and the IC50 [8] was > 66 µM (inactive).
With `CC(C)(C)C1CCc2onc(C(=O)Nc3cnn(Cc4ccc(F)cc4)c3)c2C1` (configuration not stated) the EC50 [1] was 28.2 µM (active), the EC50 [2] was 23.3 µM (active) and the EC50 [3] was > 120 µM (not active).
For `CCCn1c(=O)c(C(=O)N/N=C/c2ccccc2F)c(O)c2ccccc21`, the IC50 (cells) was 48.2 µM (active).
With `O=C(CCCCCNC(=O)c1ccccc1)N/N=C/c1ccco1` the IC50 [4] was 29.2 µM (active).
For `COc1ccccc1/C=N/N=C(/Nc1ccc(C)cc1)c1nc2ccccc2s1`, the AC50 (Cytochrome P450 1A2) was 14.1 µM (inconclusive), the AC50 (Cytochrome P450 3A4) was 17.8 µM (inconclusive) and the AC50 (Cytochrome P450 2C9) was 17.8 µM (inconclusive).
With `COc1ccccc1/C=C/C=N/NC(=O)c1ccncc1` the IC50 (cells) was 0.44 µM (active).
In the case of `O=C1c2c(O)cc(O)cc2O[C@@H](c2ccc(O)c(O)c2)[C@H]1O` [(+)-EPITAXIFOLIN], the AC50 (Cytochrome P450 1A2) is reported as 15.8 µM (inconclusive).
With `O=C(O)CNC(=O)c1ccccc1O` [SALICYLURIC ACID] the AC50 (Cytochrome P450 1A2) was 5.01 µM (inconclusive).
